{"source": "patent US8486863B2", "about": "“Activators of lateral root formation” (VIB VZW, priority 2006, dated 2013)", "key": {"[1]": {"system": "Wild-type Arabidopsis thaliana", "experiment": "Dose-response analysis of lateral root density and root length", "format": "in vivo", "conditions": "dose-response, FIG. 3", "description": "FIG. 3: Dose-response analysis of class 1 (upper panel) and class 2 (lower panel) activators. Wild-type Arabidopsis thaliana seeds were germinated under standard conditions on agar plates. After 3 days of germination, seedlings were transferred to agar plates containing compound at different concentrations. Lateral root density was measured 10 days after germination. Bars represent standard errors.\nFIG. 4: Dose-response analysis of A2, A11, A12, A14 and NAA. Wild-type Arabidopsis thaliana seeds were germinated under standard conditions on agar plates. After 3 days of germination, seedlings were transferred to agar plates containing compound at different concentrations and 1% DMSO. Plants transferred to agar plates containing 1% DMSO and no compound were used as controls. Lateral root density (left panels) and root length (right panels) were measured 10 days after germination. Bars represent standard errors.\nFor further phenotypic analysis, all plants were grown on vertically oriented square plates (Greiner Labortechnik, Austria) with solid medium derived from standard MS medium under the same conditions. 3 DAG plants were transferred to medium supplemented with compounds and were left to grow for another 7 days. After this, root length and number of LRs were counted using ImageJ 1.34 freeware.\nAs a subsequent step, the phenotypic effect of the 16 selected activators was determined in a dose-response analysis in which LR density (number of LRs per cm) was quantified (FIG. 3). Based upon potency and structure, two different classes of activators could be identified."}, "auxin signaling mutants [2]": {"system": "auxin signaling mutants", "experiment": "Effect of activators on lateral root density of auxin signaling mutants (Table 2)", "format": "in vivo, Arabidopsis thaliana", "conditions": "30 uM", "excerpt": "(§1) Afb1, Afb2, Afb3 and the triple mutant Tirlafb2afb3 were described by Dhamasiri et al. (2005). Tir1 was described by Ruegger et al., (1998); 1aa28 by Rogg et al., (2001); Tir7-1 by Ruegger et al., (1997); the Cyp79b2b3 double mutant by Ljung et al. (2005); the arf7arf19 double mutant by Fukaki et al., (2005); Aux1 by Bennett et al., (1996); Xbat32 by Nodzon et al., (2004), Axr1-12 by Timpte et al., (1995), Slr1 by Fukaki et al., 2002 and Axr3-1 by Collet et al., (2000) and the mutants were obtained from the publishing authors.\n(§2) For phenotypic analysis, all mutants were grown on vertically oriented square plates (Greiner Labortechnik, Austria) with solid medium derived from standard MS medium. The plates were put in a growth chamber under continuous light (110 μE.m2.s1 photosynthetically active radiation, supplied by cool-white fluorescent tungsten tubes; Osram) at 22° C. Three days after germination, the mutant plants were transferred to medium supplemented with compounds and were left to grow for another 7 days. After this, root length and number of lateral roots were counted using ImageJ 1.34 freeware."}, "auxin signaling mutants [3]": {"system": "auxin signaling mutants", "experiment": "Effect of A12 and NAA on lateral root density and root length of auxin signaling mutants (Table 1)", "format": "in vivo, Arabidopsis thaliana", "parameters": "Root length: unit not given here", "conditions": "30 uM", "excerpt": "as §1, §2\nDMSO is used as negative control."}, "[4]": {"conditions": "tir TM (Tir1afb2afb3 triple mutant)"}}}
{"smiles": "NC(=S)NN=Cc1ccc(-c2cccc(C(F)(F)F)c2)o1", "note": "[A12, 5-[3-(trifluoromethyl)phenyl]-2-furaldehyde thiosemicarbazone]", "values": [{"measurement": "potency as activator of LR development (LR density)", "setting": "[1]", "value": "most potent activators of class 2"}, {"measurement": "lateral root density", "setting": "auxin signaling mutants [2]; Afb1-1", "value": 23.19, "unit": "LR/cm"}, {"measurement": "lateral root density", "setting": "auxin signaling mutants [2]; Afb2-1", "value": 10.44, "unit": "LR/cm"}, {"measurement": "lateral root density", "setting": "auxin signaling mutants [2]; Afb3-1", "value": 21.05, "unit": "LR/cm"}, {"measurement": "lateral root density", "setting": "auxin signaling mutants [2]; Arf7Arf19", "value": 0.94, "unit": "LR/cm"}, {"measurement": "lateral root density", "setting": "auxin signaling mutants [2]; Arf16", "value": 10.94, "unit": "LR/cm"}, {"measurement": "lateral root density", "setting": "auxin signaling mutants [2]; Arf17", "value": 15.09, "unit": "LR/cm"}, {"measurement": "lateral root density", "setting": "auxin signaling mutants [2]; Axrt-12", "value": 14.15, "unit": "LR/cm"}, {"measurement": "lateral root density", "setting": "auxin signaling mutants [2]; Cyp79", "value": 22.76, "unit": "LR/cm"}, {"measurement": "lateral root density", "setting": "auxin signaling mutants [2]; Iaa28-1", "value": 10.00, "unit": "LR/cm"}, {"measurement": "lateral root density", "setting": "auxin signaling mutants [2]; Tir7-1", "value": 27.42, "unit": "LR/cm"}, {"measurement": "lateral root density", "setting": "auxin signaling mutants [2]; TirTM", "value": 0.00, "unit": "LR/cm"}, {"measurement": "LR density", "setting": "auxin signaling mutants [3]; CDKB DN", "value": 9.09}, {"measurement": "Root length", "setting": "auxin signaling mutants [3]; CDKB DN", "value": 1.56}, {"measurement": "Root length", "setting": "auxin signaling mutants [3]; Col-0", "value": 2.24}, {"measurement": "LR density", "setting": "auxin signaling mutants [3]; Ws", "value": 16.70}, {"measurement": "Root length", "setting": "auxin signaling mutants [3]; Ws", "value": 1.92}, {"measurement": "LR density", "setting": "auxin signaling mutants [3]; Xbat32", "value": 14.16}, {"measurement": "Root length", "setting": "auxin signaling mutants [3]; Xbat32", "value": 2.44}, {"measurement": "LR density", "setting": "auxin signaling mutants [3]; afb1-1", "value": 15.55}, {"measurement": "Root length", "setting": "auxin signaling mutants [3]; afb1-1", "value": 1.86}, {"measurement": "LR density", "setting": "auxin signaling mutants [3]; afb2-1", "value": 15.11}, {"measurement": "Root length", "setting": "auxin signaling mutants [3]; afb2-1", "value": 1.71}, {"measurement": "LR density", "setting": "auxin signaling mutants [3]; afb3-1", "value": 21.32}, {"measurement": "Root length", "setting": "auxin signaling mutants [3]; afb3-1", "value": 2.17}, {"measurement": "LR density", "setting": "auxin signaling mutants [3]; arf7arf19 DM (double mutant)", "value": 1.73}, {"measurement": "Root length", "setting": "auxin signaling mutants [3]; arf7arf19 DM (double mutant)", "value": 3.45}, {"measurement": "LR density", "setting": "auxin signaling mutants [3]; aux1", "value": 15.94}, {"measurement": "Root length", "setting": "auxin signaling mutants [3]; aux1", "value": 2.24}, {"measurement": "LR density", "setting": "auxin signaling mutants [3]; axr1-12", "value": 15.84}, {"measurement": "Root length", "setting": "auxin signaling mutants [3]; axr1-12", "value": 1.62}, {"measurement": "LR density", "setting": "auxin signaling mutants [3]; axr5-1", "value": 14.10}, {"measurement": "Root length", "setting": "auxin signaling mutants [3]; axr5-1", "value": 3.40}, {"measurement": "LR density", "setting": "auxin signaling mutants [3]; cyp79b2-3 DM (double mutant)", "value": 17.30}, {"measurement": "Root length", "setting": "auxin signaling mutants [3]; cyp79b2-3 DM (double mutant)", "value": 2.26}, {"measurement": "LR density", "setting": "auxin signaling mutants [3]; iaa28-1", "value": 8.85}, {"measurement": "Root length", "setting": "auxin signaling mutants [3]; iaa28-1", "value": 3.39}, {"measurement": "LR density", "setting": "auxin signaling mutants [3]; lax3", "value": 15.27}, {"measurement": "Root length", "setting": "auxin signaling mutants [3]; lax3", "value": 2.48}, {"measurement": "LR density", "setting": "auxin signaling mutants [3]; msg2-1", "value": 27.49}, {"measurement": "Root length", "setting": "auxin signaling mutants [3]; msg2-1", "value": 1.58}, {"measurement": "LR density", "setting": "auxin signaling mutants [3]; slr-1", "value": 0.00}, {"measurement": "Root length", "setting": "auxin signaling mutants [3]; slr-1", "value": 1.90}, {"measurement": "LR density", "setting": "auxin signaling mutants [3]; tir1-1", "value": 13.38}, {"measurement": "Root length", "setting": "auxin signaling mutants [3]; tir1-1", "value": 2.34}, {"measurement": "LR density", "setting": "auxin signaling mutants [3]; tir7-1", "value": 17.30}, {"measurement": "Root length", "setting": "auxin signaling mutants [3]; tir7-1", "value": 1.52}, {"measurement": "LR density", "setting": "auxin signaling mutants [3]; [4]", "value": 4.82}, {"measurement": "Root length", "setting": "auxin signaling mutants [3]; [4]", "value": 2.60}]}
